From publication PMC3680490, “Fragment-Based Screening Maps Inhibitor Interactions in the ATP-Binding Site of Checkpoint Kinase 2” (PLoS ONE, 2013)
Marks after values point to notes of the source that are not given here.

Assays:
full-length CHK2 [1] = target: T1, full-length CHK2 (Homo sapiens, UniProt O96017); test: High-concentration AlphaScreen kinase assay (phosphorylation of CDC25C peptide); format: biochemical; settings: for inhibition at 300 µM: primary screening data, compound concentration 300 µM, mean ± SD of triplicate, read-out: AlphaScreen™ (percentage inhibition)
T1 construct: full-length human CHK2 (residues 1 to 543); 6xHis (N); made in house; host or cells: Sf9 insect cells (baculovirus)
Protocol: To identify fragments binding in the ATP-binding-site of CHK2, we screened the in-house fragment library consisting of 1869 compounds, as described above, against full-length CHK2 using an AlphaScreen™ kinase assay, in which inhibition of full-length CHK2 was measured by a reduction in the phosphorylation of a CDC25C peptide (Figure S1). Because of the generally weak affinity of fragments, the assay was carried out at a high compound concentration (300 µM). […] All 45 hits were confirmed by re-assaying them under the same conditions. To eliminate potential false positives due to aggregation of poorly soluble fragments, or owing to interference with the AlphaScreen™ signal, the hits were assayed by including 0.01% (v/v) Triton™ X-100 in the assay buffer, and in the presence of phosphorylated rather than unphosphorylated peptide substrate, respectively. The average robust Z’ for the confirmation assays was 0.9. […] The final confirmed hit rate for the assay was 1.1%.
Full-length CHK2 was screened against the ICR fragment library consisting of 1869 fragments using a biochemical assay based on AlphaScreen™ technology in which the CHK2 kinase activity was measured by monitoring the phosphorylation of a CDC25C peptide using a phospho-specific antibody. Assay conditions were similar to those described by Hilton et al., but all fragments were screened at a final concentration of 300 µM. Amendments to the protocol included a change in the full-length CHK2 concentration to 2 nM and a final concentration of the antibody against phosphorylated CDC25C of 0.5 nM. For a positive control, 4-(2-amino-5-(thiophen-3-yl)pyridin-3-yl)benzoic acid (27, Figure S4, referred to as compound 19 in Hilton et al.) was added at a final concentration of 10 µM. The phosphorylation reaction was performed for 80 min at room temperature and stopped by the addition of 5 µL of the previously described detection buffer. Plates were incubated overnight at room temperature and in the dark, and the assay endpoint was measured using an Envision™ 2103 multilabel reader (Perkin Elmer Life Sciences, Seer Green, UK). Primary screening data were analyzed in ActivityBase (IDBS, Guildford, UK). Percentage inhibition was calculated as follows: 100*(1–(S–B)/(T–B)), where S represented the counts for each compound well, B the counts in the wells containing no enzyme, and T the counts in the total activity wells. The plates were assayed in triplicate and fragments with a percentage inhibition of 50% or more in at least two out of the three measurements were defined as initial hits. Initial hits were re-assayed under the same conditions in triplicate for reconfirmation. Furthermore, all hits were tested for interference by repeating the assay in the presence of phosphorylated rather than unphosphorylated peptide substrate, and for aggregation by including 0.01% (v/v) Triton™ X-100 in the assay buffer.

full-length CHK2 [2] = target: T1, full-length CHK2; test: Microfluidic mobility shift assay for IC50 determination; format: biochemical; settings: for Ligand Efficiency: calculated using mean mobility shift IC50; for IC50: mean ± SD of triplicate
Protocol: In addition, percentage inhibition and IC50 values for all follow-up compounds were determined in triplicate using this assay. […] An ECHO® 550 acoustic dispenser (Labcyte Inc™, Dublin, Ireland) was used to generate duplicate eight-point dilution curves directly into 384-well low-volume polystyrene assay plates (Corning Life Sciences, New York, USA). For each compound, a 10 mM stock concentration in 100% DMSO was used.
The plate was sealed and centrifuged for 1 min at 1000 rpm before incubation for 1 h at room temperature.
IC50 values were calculated from a four-parameter logistics fit of percentage inhibition versus concentration using the Studies package (from Dotmatics, Bishops Stortford, UK).

[3] = target: T2, kinase domain of CHK2 (CHK2-KD, residues 210-531) (Homo sapiens, UniProt O96017); test: Thermal shift assay (SYPRO Orange); format: binding; settings: for T m, ligand (standard deviations from the plate mean): highest value of two independent measurements, 2 mM fragment; for ΔT m, ligand: mean of two independent measurements, 2 mM ligand
T2 construct: The kinase domain of CHK2 (residues 210-531) was produced as a GST-fusion protein; GST (cleaved yes); made in house
Protocol: In parallel, we screened the fragment library against the kinase domain of CHK2 (CHK2-KD, residues 210-531) using a thermal shift assay. In a thermal shift assay, the folding stability of a target protein is measured by its thermally-induced unfolding. An increase in melting temperature of a protein in the presence of a ligand is used to identify ligand binding, assuming that the bound ligand stabilizes the target protein and therefore increases the energy required for its thermal unfolding. The thermal unfolding of CHK2-KD was measured using the fluorescent dye SYPRO® Orange™, which is sensitive to its environment and preferentially binds to hydrophobic patches that are typically exposed upon protein unfolding. To identify the hit threshold, we calculated the standard deviation (SD) of the melting temperature of CHK2 in the presence of a ligand (T m, ligand) for each plate. Ligands with a T m, ligand value of more than 2 standard deviations above the mean T m, ligand for each plate in at least one of the duplicates were defined as hits. We calculated the mean change in melting temperature from duplicate measurements (ΔT m, ligand) by subtracting the mean melting temperature of six reference samples of protein without ligand (T m, 0) from the melting temperature of CHK2 samples with ligand (T m, ligand).
Thermal shift screening of the ICR fragment library against a truncated version of CHK2 comprising only the kinase domain (CHK2-KD), was carried out using an Opticon 2 RT-PCR machine (Bio-Rad, Hemel Hempstead, UK). […] All experiments were performed in white 96-well SuperPlate skirted PCR-plates (ABgene®, Thermo Scientific, Loughborough, UK). Fragments were screened at a final concentration of 2 mM in assay buffer containing a final concentration of 2% (v/v) DMSO and all measurements were carried out in duplicate. The well contents were mixed by centrifugation for 2 min at 500 g and pre-equilibrated for 5 min at 20°C before starting the thermal shift experiment. All melting curves were generated from 20°C to 95°C, raising the temperature in steps of 0.5°C and keeping it constant for 15 seconds at each step. […] MgATP (2 mM ATP and 5 mM MgCl2) in the presence of 2% (v/v) DMSO was used as a positive control. For each experiment, the data range of the protein unfolding transition was established using the Excel-based worksheet ‘DSF Analysis’, made available by the Structural Genomics Consortium (SGC), Oxford, and subsequently fitted with a Boltzmann sigmoidal equation using GraphPad Prism version 5 (GraphPad Software, San Diego, California, USA, www.graphpad.com), from which the melting temperature T m was calculated. The change in melting temperature caused by ligand binding, expressed as the mean from duplicate measurements (ΔT m, ligand), was calculated by subtracting T m, 0 from each melting temperature obtained in the presence of a ligand (T m, ligand) using the DSF-analysis spreadsheet. The hit threshold was determined by calculating the standard deviation (SD) of the melting temperatures of CHK2 in the presence of ligand (T m, ligand) for every plate. Ligands with a T m, ligand>mean(T m, ligand) +2SD in at least one of the duplicates were defined as hits.

CHK1 = target: T3, CHK1 (Homo sapiens, UniProt O14757); test: CHK1 mobility shift assay; format: biochemical; settings: inactive
T3 sequence (O14757 1-476): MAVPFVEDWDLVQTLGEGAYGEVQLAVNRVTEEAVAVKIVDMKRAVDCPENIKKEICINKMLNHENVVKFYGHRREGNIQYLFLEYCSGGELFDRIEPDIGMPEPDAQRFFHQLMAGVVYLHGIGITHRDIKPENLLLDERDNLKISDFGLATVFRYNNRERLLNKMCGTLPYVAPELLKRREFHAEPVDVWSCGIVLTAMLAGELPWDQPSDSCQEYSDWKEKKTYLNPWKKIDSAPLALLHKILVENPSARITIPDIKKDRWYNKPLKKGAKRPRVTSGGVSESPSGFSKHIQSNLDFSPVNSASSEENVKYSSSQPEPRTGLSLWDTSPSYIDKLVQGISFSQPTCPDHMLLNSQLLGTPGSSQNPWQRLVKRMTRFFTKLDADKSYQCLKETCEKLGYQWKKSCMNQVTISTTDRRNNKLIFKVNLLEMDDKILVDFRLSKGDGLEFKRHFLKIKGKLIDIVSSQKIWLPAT
Excerpt: However, it is very difficult to assess the contribution to selectivity of binding in this pocket using the inhibitor 26, because its CHK2 selectivity is most likely dominated by the unusual binding of the benzamidazole scaffold to the hinge through a mediating water molecule.

[4] = tested on: ovarian cancer cell lines; settings: cited from earlier work
[5] = follow-up compounds from similarity search (Table 2)

T2 sequence (O96017 210-531): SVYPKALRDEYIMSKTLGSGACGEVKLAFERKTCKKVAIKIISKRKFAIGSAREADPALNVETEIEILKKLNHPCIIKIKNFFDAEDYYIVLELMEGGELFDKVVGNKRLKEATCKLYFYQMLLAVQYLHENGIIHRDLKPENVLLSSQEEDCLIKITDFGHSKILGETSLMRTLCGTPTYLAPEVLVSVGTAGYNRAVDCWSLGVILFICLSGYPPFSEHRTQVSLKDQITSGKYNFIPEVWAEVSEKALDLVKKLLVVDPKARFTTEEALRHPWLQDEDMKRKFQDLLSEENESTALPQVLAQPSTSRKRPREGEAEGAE
T1 sequence (O96017 whole entry, the tested form may be a part): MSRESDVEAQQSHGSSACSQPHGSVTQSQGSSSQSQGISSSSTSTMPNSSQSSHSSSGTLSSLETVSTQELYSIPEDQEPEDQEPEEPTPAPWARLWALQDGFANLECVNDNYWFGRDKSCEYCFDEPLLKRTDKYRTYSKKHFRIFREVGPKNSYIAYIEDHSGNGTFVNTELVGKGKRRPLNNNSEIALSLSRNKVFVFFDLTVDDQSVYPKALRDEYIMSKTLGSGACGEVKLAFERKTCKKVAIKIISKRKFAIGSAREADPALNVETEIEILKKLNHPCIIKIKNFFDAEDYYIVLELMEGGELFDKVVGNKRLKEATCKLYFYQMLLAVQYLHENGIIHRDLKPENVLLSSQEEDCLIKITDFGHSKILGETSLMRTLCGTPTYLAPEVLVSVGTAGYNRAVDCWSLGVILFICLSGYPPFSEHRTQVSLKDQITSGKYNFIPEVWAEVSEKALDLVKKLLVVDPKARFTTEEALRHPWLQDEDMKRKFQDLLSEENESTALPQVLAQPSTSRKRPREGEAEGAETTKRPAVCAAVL

Cc1n[nH]c(N)c1-c1cccs1 [Compound 18]
inhibition at 300 µM (full-length CHK2 [1]): 60.9 ± 2.1% | Ligand Efficiency (full-length CHK2 [2]; Table 1): 0.47 kcal mol^−1 HA^−1 | IC50 (full-length CHK2 [2]; fragment hits, 100 µM ATP): 76.8 ± 1.4 µM | T m, ligand (standard deviations from the plate mean) [3]: 4.6 standard deviations | ΔT m, ligand [3]: 3.9±1.3 °C

C/C(=N/O)c1ccc(O)cc1O [Compound 12]
inhibition at 300 µM (full-length CHK2 [1]): 58.2 ± 1.7% | Ligand Efficiency (full-length CHK2 [2]; Table 1): 0.47 kcal mol^−1 HA^−1 | IC50 (full-length CHK2 [2]; fragment hits, 100 µM ATP): 85.6 ± 7.9 µM | T m, ligand (standard deviations from the plate mean) [3]: 2.9 standard deviations | ΔT m, ligand [3]: 3.0 ^f °C

COc1ccc(CNC(=O)c2ccc3nccnc3c2)cc1 [Compound 22]
Ligand Efficiency (full-length CHK2 [2]; Table 2): 0.34 kcal mol^−1 HA^−1 | IC50 (full-length CHK2 [2]; [5]): 3.6 ± 1.2 µM | IC50 (CHK1): > 200 µM

O=C(NCc1ccco1)c1ccc2nccnc2c1 [Compound 13]
inhibition at 300 µM (full-length CHK2 [1]): 76.1 ± 1.1% | Ligand Efficiency (full-length CHK2 [2]; Table 1): 0.36 kcal mol^−1 HA^−1 | IC50 (full-length CHK2 [2]; fragment hits, 100 µM ATP): 11.7 ± 2 µM | T m, ligand (standard deviations from the plate mean) [3]: 5.7 standard deviations | ΔT m, ligand [3]: 5.6±0.3 °C | IC50 (CHK1): > 200 µM

c1cncc(-c2n[nH]c3ccnc(-c4cccs4)c23)c1 [Compound 21]
Ligand Efficiency (full-length CHK2 [2]; Table 2): 0.32 kcal mol^−1 HA^−1 | IC50 (full-length CHK2 [2]; [5]): 21.3 ± 2.1 µM

Cc1cc(-c2ccccc2)n[nH]1 [Compound 16]
inhibition at 300 µM (full-length CHK2 [1]): 56.1 ± 1% | T m, ligand (standard deviations from the plate mean) [3]: 3.7 standard deviations | ΔT m, ligand [3]: 2.6±1.7 °C

Nc1ncc(-c2ccsc2)cc1-c1ccc(C(=O)O)cc1 [Compound 27, 4-(2-amino-5-(thiophen-3-yl)pyridin-3-yl)benzoic acid, reference compound]
inhibition at 10 µM (full-length CHK2 [1]; concentration of 10 µM, read-out: AlphaScreen™ percentage inhibition, positive control): 62.7%

CC(=O)N1CCC(C(=O)Nc2ccc(C)cn2)CC1 [Compound 19]
inhibition at 300 µM (full-length CHK2 [1]): 34.7 ± 0.93% | Ligand Efficiency (full-length CHK2 [2]; Table 1): 0.26 kcal mol^−1 HA^−1 | IC50 (full-length CHK2 [2]; fragment hits, 100 µM ATP): 228 ± 22.2 µM | T m, ligand (standard deviations from the plate mean) [3]: 5.7 standard deviations | ΔT m, ligand [3]: 4.0±0.6 °C

CC(CO)NC(=N)c1c(O)nsc1Nc1ccc(Nc2ccc(Br)cc2)cc1 (stereo not shown) [VRX0466617]
Potentiation in combination with genotoxic agents [4]: no such effects have been observed

c1ccc2c(c1)[nH]c1ncnn12 [Compound 11]
inhibition at 300 µM (full-length CHK2 [1]): 91.4 ± 0.4% | Ligand Efficiency (full-length CHK2 [2]; Table 1): 0.64 kcal mol^−1 HA^−1 | IC50 (full-length CHK2 [2]; fragment hits, 100 µM ATP): 2.7 ± 0.2 µM | T m, ligand (standard deviations from the plate mean) [3]: 5.8 standard deviations | ΔT m, ligand [3]: 7.0±0.8 °C

Cc1ccc2ncnc(N)c2c1 [Compound 15]
inhibition at 300 µM (full-length CHK2 [1]): 72.8 ± 6.7% | Ligand Efficiency (full-length CHK2 [2]; Table 1): 0.55 kcal mol^−1 HA^−1 | IC50 (full-length CHK2 [2]; fragment hits, 100 µM ATP): 15.9 ± 1.1 µM | T m, ligand (standard deviations from the plate mean) [3]: 4.6 standard deviations | ΔT m, ligand [3]: 5.0±0.6 °C

c1coc(-c2ccnc3[nH]nc(C4CC4)c23)c1 [Compound 20]
Ligand Efficiency (full-length CHK2 [2]; Table 2): 0.42 kcal mol^−1 HA^−1 | IC50 (full-length CHK2 [2]; [5]): 7.2 ± 2.9 µM

CCOC(=O)N1CCN(C(=O)Nc2ccc3nccnc3c2)CC1 [Compound 23]
Ligand Efficiency (full-length CHK2 [2]; Table 2): 0.28 kcal mol^−1 HA^−1 | IC50 (full-length CHK2 [2]; [5]): 14.2 ± 8.6 µM

CC(C)(C)NC(=O)Nc1ccc2nccnc2c1 [Compound 14]
inhibition at 300 µM (full-length CHK2 [1]): 59.5 ± 1.9% | Ligand Efficiency (full-length CHK2 [2]; Table 1): 0.34 kcal mol^−1 HA^−1 | IC50 (full-length CHK2 [2]; fragment hits, 100 µM ATP): 36.9 ± 9 µM | T m, ligand (standard deviations from the plate mean) [3]: 4.3 standard deviations | ΔT m, ligand [3]: 4.5±0.02 °C

Nc1cc(-c2cccnc2)n[nH]1 [Compound 17]
inhibition at 300 µM (full-length CHK2 [1]): 71.5 ± 25.5% | Ligand Efficiency (full-length CHK2 [2]; Table 1): 0.47 kcal mol^−1 HA^−1 | IC50 (full-length CHK2 [2]; fragment hits, 100 µM ATP): 76.2 ± 3.3 µM | T m, ligand (standard deviations from the plate mean) [3]: 4.2 standard deviations | ΔT m, ligand [3]: 3.7±0.9 °C
